Holding throughout (assay type): biochemical
For one assay, the target named is T1, PDGFR-β kinase (Homo sapiens, UniProt P09619).
T1 construct: recombinant N-terminal 6×His-tagged PDGFR-β kinase domain construct expressed by baculovirus; 6xHis (N); made in house
Description: PDGFR-β kinase assay (33P incorporation into Poly(Glu-Tyr)). The conditions noted are these: 500 nM test compound. In short, it runs like this:
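His-tagged PDGFR-β kinase domain (55 ng) with Poly(Glu-Tyr) 4:1, 30 μM ATP plus [33P]-γ-ATP, pH 7.0 MnCl2 buffer, and 500 nM compound for 30 min at 30° C. Filter-bound radioactivity counted; inhibition computed relative to DMSO control.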

A further assay addresses T2, c-Met kinase (Homo sapiens, UniProt P08581).
T2 construct: recombinant N-terminal 6×His-tagged c-Met kinase domain construct expressed from baculovirus; 6xHis (N); made in house
The assay can be described thus: c-Met kinase assay (33P incorporation into Poly(Glu-Tyr)). Conditions: 500 nM test compound. The gist of the method: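 Single-concentration test (500 nM compound) at 30° C for 30 min, pH 7.0 MOPS buffer with 100 μM ATP and [33P]-γ-ATP. Enzyme was baculovirus-expressed 6×His c-Met kinase domain (5 ng), substrate Poly(Glu-Tyr) 4:1. Inhibition percentage derived from filter-bound counts relative to DMSO control.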

The next assay addresses T3, VEGFR2 kinase (Homo sapiens, UniProt P35968).
T3 construct: recombinant N-terminal 6×His-tagged VEGFR2 kinase domain construct expressed by baculovirus; 6xHis (N); made in house
Description: VEGFR2 kinase assay (33P incorporation into Poly(Glu-Tyr)). The conditions noted are these: 500 nM test compound; read-out: Inhibition at 500 nM (%) VEGFr-2. The gist of the method:
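Recombinant baculovirus-expressed N-terminal His6-tagged VEGFR2 kinase domain (6.25 ng) phosphorylated poly(Glu-Tyr) 4:1 with 100 μM ATP plus [33P]-γ-ATP in MOPS pH 7.0, 30 °C, 30 min. Test compound was at 500 nM (4% DMSO). Filter-retained radioactivity relative to DMSO control gave % inhibition.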

Another assay deals with T4, Aurora B kinase (Homo sapiens, UniProt Q96GD4).
T4 construct: purchased Cell signaling
The assay can be described thus: Aurora B kinase assay ([γ-33P]ATP, CHOCKtide substrate). The conditions noted are these: for inhibition at 1 µM: 1.0 μM test compound. The gist of the method:
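Radiometric filter-binding format: 33P incorporation into CHOCKtide counted after acid stop and filtration. Reactions ran 30 min at 33 °C, Aurora A with 10 μM ATP, Aurora B with 40 μM ATP. IC50 taken as concentration giving half-maximal kinase inhibition.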

The results in this text go back to patent US7897602B2, “Indolinone compounds as kinase inhibitors” (Development Center for Biotechnology, priority 2009, dated 2011).

Each structure is given as a SMILES string. Structures can show the parent of a compound that is named as a salt.

T2 sequence (P08581 1078-1345 limits assumed): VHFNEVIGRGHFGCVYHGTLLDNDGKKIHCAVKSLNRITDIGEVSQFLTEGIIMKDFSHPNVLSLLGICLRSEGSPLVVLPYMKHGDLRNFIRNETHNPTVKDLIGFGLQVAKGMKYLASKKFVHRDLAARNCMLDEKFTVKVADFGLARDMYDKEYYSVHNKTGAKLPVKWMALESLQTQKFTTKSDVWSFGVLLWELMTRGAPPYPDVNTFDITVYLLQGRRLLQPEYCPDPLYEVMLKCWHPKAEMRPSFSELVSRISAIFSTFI
T3 sequence (P35968 834-1162 limits assumed): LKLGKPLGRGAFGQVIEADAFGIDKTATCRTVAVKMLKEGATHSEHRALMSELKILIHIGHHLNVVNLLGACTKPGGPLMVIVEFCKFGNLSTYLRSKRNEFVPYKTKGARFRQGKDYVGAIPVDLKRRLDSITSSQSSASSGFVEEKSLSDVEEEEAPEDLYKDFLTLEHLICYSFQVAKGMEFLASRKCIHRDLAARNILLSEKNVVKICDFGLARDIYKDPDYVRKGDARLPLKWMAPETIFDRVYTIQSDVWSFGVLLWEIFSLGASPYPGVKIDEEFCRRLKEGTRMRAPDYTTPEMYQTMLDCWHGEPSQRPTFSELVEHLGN
T1 sequence (P09619 600-962 limits assumed): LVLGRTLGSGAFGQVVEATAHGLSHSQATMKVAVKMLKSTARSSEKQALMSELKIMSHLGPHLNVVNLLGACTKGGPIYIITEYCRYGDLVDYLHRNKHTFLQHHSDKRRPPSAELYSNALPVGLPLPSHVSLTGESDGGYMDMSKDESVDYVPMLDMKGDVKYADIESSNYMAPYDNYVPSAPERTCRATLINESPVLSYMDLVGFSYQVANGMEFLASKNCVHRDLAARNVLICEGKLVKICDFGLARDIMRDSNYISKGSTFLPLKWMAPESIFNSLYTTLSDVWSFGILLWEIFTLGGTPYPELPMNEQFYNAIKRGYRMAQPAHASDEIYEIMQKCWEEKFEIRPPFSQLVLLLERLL
T4 sequence (Q96GD4 whole entry): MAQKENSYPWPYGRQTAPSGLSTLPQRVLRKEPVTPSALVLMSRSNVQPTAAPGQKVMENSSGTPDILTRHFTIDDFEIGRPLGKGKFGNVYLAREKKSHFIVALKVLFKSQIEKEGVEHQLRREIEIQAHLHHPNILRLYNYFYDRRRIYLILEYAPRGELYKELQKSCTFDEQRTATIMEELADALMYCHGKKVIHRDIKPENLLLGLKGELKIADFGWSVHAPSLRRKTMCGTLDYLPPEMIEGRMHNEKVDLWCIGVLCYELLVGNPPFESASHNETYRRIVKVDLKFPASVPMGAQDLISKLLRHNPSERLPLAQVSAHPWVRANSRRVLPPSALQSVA

With `CC(=O)Nc1ccc2c(c1)/C(=C/c1[nH]c3c(c1CCC(=O)O)C(=O)CCC3)C(=O)N2` [DCB-70104, (Z)-5-acetamido-3-((3-carboxyethyl-4-oxo-4,5,6,7-tetrahydro-1H-indol-2-yl)methylene)indolin-2-one], the figures for the inhibition at 0.5 µM on PDGFR-β kinase, against c-Met kinase and at VEGFR2 kinase were 27.2%, 19.7% and 73.8%, respectively. In addition, on Aurora B kinase, the inhibition (as a rule, the drop in the measured response relative to a control, in per cent) at 1 µM was determined as 12.8%.

With `O=C(O)CCc1c(/C=C2\C(=O)Nc3ccc(S(=O)(=O)N4CCc5ccccc54)cc32)[nH]c2c1C(=O)CCC2` [DCB-70106, (Z)-5-(indolin-1-ylsulfonyl)-3-((3-carboxyethyl-4-oxo-4,5,6,7-tetrahydro-1H-indol-2-yl)methylene)indolin-2-one], the inhibition at 0.5 µM turned out to be 36.3% against PDGFR-β kinase, 59.6% on c-Met kinase and 46.4% on VEGFR2 kinase. Besides, at Aurora B kinase, the midpoint of inhibition, the IC50, lay at 292 nM. At Aurora B kinase, the inhibition at 1 µM worked out at 70.6%.

Take `CN1CCN(S(=O)(=O)c2ccc3c(c2)/C(=C/c2[nH]c4c(c2CCC(=O)O)C(=O)CCC4)C(=O)N3)CC1` [DCB-70107, (Z)-5-(4-methylpiperazin-1-ylsunfonyl)-3-((3-carboxyethyl-4-oxo-4,5,6,7-tetrahydro-1H-indol-2-yl)methylene)indolin-2-one hydrochloride]: the values for the inhibition at 0.5 µM against PDGFR-β kinase, against c-Met kinase and at VEGFR2 kinase were 8%, 59.6% and 48.8%, respectively. The inhibition at 1 µM at Aurora B kinase worked out at 23.7%.

With `CCOC(=O)CCc1c(/C=C2\C(=O)Nc3ccc(-c4ccc(F)cc4)cc32)[nH]c2c1C(=O)CCC2` [DCB-70108, (Z)-5-(4-fluorophenyl)-3-((3-(3-ethoxy-3-oxopropyl)-4-oxo-4,5,6,7-tetrahydro-1H-indol-2-yl)methylene)indolin-2-one], the inhibition at 0.5 µM at PDGFR-β kinase came to 4%; against c-Met kinase, 30.1%; at VEGFR2 kinase it was 14.1%. For the same compound, the inhibition at 1 µM at Aurora B kinase was determined as 6.8%.

Turning to `O=C(O)CCc1c(/C=C2\C(=O)Nc3ccc(-c4ccc(F)cc4)cc32)[nH]c2c1C(=O)CCC2` [DCB-70109, (Z)-5-(4-fluorophenyl)-3-((3-carboxyethyl-4-oxo-4,5,6,7-tetrahydro-1H-indol-2-yl)methylene)indolin-2-one], the inhibition at 0.5 µM is 22.6% at PDGFR-β kinase, -10.8% at c-Met kinase and 58.6% at VEGFR2 kinase. For the same compound, the inhibition at 1 µM against Aurora B kinase stood at 1.8%.

Take `O=C(O)CCc1c(/C=C2\C(=O)Nc3ccc(S(=O)(=O)N4CCCCC4)cc32)[nH]c2c1C(=O)CCC2` [DCB-70114, (Z)-5-(piperidin-1-ylsulfonyl)-3-((3-carboxyethyl-4-oxo-4,5,6,7-tetrahydro-1H-indol-2-yl)methylene)indolin-2-one]: the inhibition at 0.5 µM against PDGFR-β kinase was determined as 5.6%; at c-Met kinase, 3.5%; at VEGFR2 kinase, 22.6%. In addition, on Aurora B kinase, the IC50 (usually the concentration needed to halve the response being measured) is 494 nM. In addition, on Aurora B kinase, the inhibition at 1 µM was determined as 60.7%.

On to `C=CS(=O)(=O)c1ccc2c(c1)/C(=C/c1[nH]c3c(c1CCC(=O)O)C(=O)CCC3)C(=O)N2` [DCB-70115, (Z)-5-vinylsulfonyl-3-((3-carboxyethyl-4-oxo-4,5,6,7-tetrahydro-1H-indol-2-yl)methylene)indolin-2-one], for which the figures for the inhibition at 0.5 µM at PDGFR-β kinase, against c-Met kinase and at VEGFR2 kinase were 22%, 22.3% and 52.2%, respectively. Also, the inhibition at 1 µM against Aurora B kinase amounted to 32.5%.

As to `CCS(=O)(=O)c1ccc2c(c1)/C(=C/c1[nH]c3c(c1CCC(=O)O)C(=O)CCC3)C(=O)N2` [DCB-70116, (Z)-5-ethylsulfonyl-3-((3-carboxyethyl-4-oxo-4,5,6,7-tetrahydro-1H-indol-2-yl)methylene)indolin-2-one], the inhibition at 0.5 µM on PDGFR-β kinase is 11.2%; against c-Met kinase, 38.1%; on VEGFR2 kinase, 47.9%. Besides, the inhibition at 1 µM against Aurora B kinase is 7%.

As to `CNS(=O)(=O)c1ccc2c(c1)/C(=C/c1[nH]c3c(c1CCC(=O)N1CCN(C)CC1)C(=O)CCC3)C(=O)N2` [DCB-70117], the inhibition at 0.5 µM is 8.9% against PDGFR-β kinase, 41.4% at c-Met kinase and 43.3% at VEGFR2 kinase. For the same compound, on Aurora B kinase, the inhibition at 1 µM was determined as 5.3%.

As to `CCOC(=O)CCc1c(/C=C2\C(=O)Nc3ccc(NS(=O)(=O)CC)cc32)[nH]c2c1C(=O)CCC2` [DCB-70118, (Z)-5-ethylsulfonamido-3-((3-(3-ethoxy-3-oxopropyl)-4-oxo-4,5,6,7-tetrahydro-1H-indol-2-yl)methylene)indolin-2-one], the inhibition at 0.5 µM against PDGFR-β kinase turned out to be 16.1%; on c-Met kinase it was 50.9%; on VEGFR2 kinase it was 51.9%. Moreover, the inhibition at 1 µM at Aurora B kinase was 3.2%.

As for `CCS(=O)(=O)Nc1ccc2c(c1)/C(=C/c1[nH]c3c(c1CCC(=O)O)C(=O)CCC3)C(=O)N2` [DCB-70119, (Z)-5-ethylsulfonamido-3-((3-carboxyethyl-4-oxo-4,5,6,7-tetrahydro-1H-indol-2-yl)methylene)indolin-2-one], the inhibition at 0.5 µM at PDGFR-β kinase was 8.3%; on c-Met kinase, 31.8%; at VEGFR2 kinase, 33.9%. Moreover, the inhibition at 1 µM against Aurora B kinase came to 7.3%.

`CN1CCN(C(=O)CCc2c(/C=C3\C(=O)Nc4ccc(S(=O)(=O)N5CCCC5)cc43)[nH]c3c2C(=O)CCC3)CC1` [DCB-70120, (Z)-3-((3-(3-(4-methylpiperazin-l-yl)-3-oxopropyl)-4-oxo-4,5,6,7-tetrahydro-1H-indol-2-yl)methylene)-5-(pyrrolidin-1-ylsulfonyl)indolin-2-one]: the inhibition at 0.5 µM on PDGFR-β kinase came to 7.6%; at c-Met kinase, 10%; on VEGFR2 kinase, 17.6%. The inhibition at 1 µM at Aurora B kinase was 21.5%.

With `CN(C)S(=O)(=O)c1ccc2c(c1)/C(=C/c1[nH]c3c(c1CCC(=O)O)C(=O)CCC3)C(=O)N2` [DCB-70121, (Z)-5-(N,N-dimethylsulfamoyl)-3-((3-carboxyethyl-4-oxo-4,5,6,7-tetrahydro-1H-indol-2-yl)methylene)indolin-2-one], the inhibition at 0.5 µM on PDGFR-β kinase is 16.9%; against c-Met kinase it was -6.7%; on VEGFR2 kinase it was 19.6%. Also, the IC50 against Aurora B kinase is 1720 nM. Also, the inhibition at 1 µM at Aurora B kinase was determined as 46.5%.

For `CCOC(=O)CCc1c(/C=C2\C(=O)Nc3cc(F)ccc32)[nH]c2c1C(=O)CCC2` [DCB-70122, (Z)-6-fluoro-3-((3-(3-ethoxy-3-oxopropyl)-4-oxo-4,5,6,7-tetrahydro-1H-indol-2-yl)methylene)indolin-2-one], the inhibition at 0.5 µM at PDGFR-β kinase worked out at 64.3%; on c-Met kinase it was 19.1%; on VEGFR2 kinase it was 84%. Moreover, on Aurora B kinase, the inhibition at 1 µM worked out at 8.3%.

As to `O=C(O)CCc1c(/C=C2\C(=O)Nc3cc(F)ccc32)[nH]c2c1C(=O)CCC2` [DCB-70123, (Z)-6-fluoro-3-((3-carboxyethyl-4-oxo-4,5,6,7-tetrahydro-1H-indol-2-yl)methylene)indolin-2-one], the inhibition at 0.5 µM came to 67.2% on PDGFR-β kinase, 8.3% against c-Met kinase and 90.8% at VEGFR2 kinase. At Aurora B kinase, the inhibition at 1 µM amounted to 13.3%.

Take `CCN(CC)C(=O)CCc1c(/C=C2\C(=O)Nc3ccc(F)cc32)[nH]c2c1C(=O)CCC2` [DCB-70124, (Z)-N,N-diethyl-3-(2-((5-fluoro-2-oxoindolin-3-ylidene)methyl)-4-oxo-4,5,6,7-tetrahydro-1H-indol-3-yl)propanamide]: the figures for the inhibition at 0.5 µM against PDGFR-β kinase, at c-Met kinase and at VEGFR2 kinase were 64.3%, -0.8% and 72.5%, respectively. For the same compound, the inhibition at 1 µM against Aurora B kinase worked out at 1.4%.

For the compound `O=C1Nc2ccc(F)cc2/C1=C/c1[nH]c2c(c1CCC(=O)N1CCOCC1)C(=O)CCC2` [DCB-70125, (Z)-5-fluoro-3-((3-(3-morpholino-3-oxopropyl)-4-oxo-4,5,6,7-tetrahydro-1H-indol-2-yl)methylene)indolin-2-one], the inhibition at 0.5 µM on PDGFR-β kinase was determined as 78.2%; on c-Met kinase it was 2.9%; on VEGFR2 kinase, 83.4%. In addition, the inhibition at 1 µM against Aurora B kinase is -0.1%.

As for `CCOC(=O)CCc1c(/C=C2\C(=O)Nc3cc(-c4ccc5c(c4)OCO5)ccc32)[nH]c2c1C(=O)CCC2` [DCB-70128, (Z)-ethyl 3-(2-((6-(benzo[d][1,3]dioxol-5-yl)-2-oxoindolin-3-ylidene)methyl)-4-oxo-4,5,6,7-tetrahydro-1H-indol-3-yl)propanoate], the values for the inhibition at 0.5 µM against PDGFR-β kinase, on c-Met kinase and at VEGFR2 kinase were 9%, 12.5% and 19.3%, respectively. On Aurora B kinase, the inhibition at 1 µM was 13.5%.
